Values of other authors in patent publication US11839630B2, “CAR-T cells targeting IL-1RAP and their use” (ETABLISSEMENT FRANCAIS DU SANG, priority 2017, dated 2023).

What was measured:
CML [1] = conditions: cited from earlier work
CML [2] = conditions: cited from earlier work; remark: listed apart in the source

Cc1ccc(NC(=O)c2ccc(CN3CCN(C)CC3)cc2)cc1Nc1nccc(-c2cccnc2)n1 [Imatinib]
patients relapsed after discontinuation (CML [1]; 42 of 69 patients, treatment of more than 2 years discontinued): 61% | probability of persistent molecularly undetectable leukemia (CML [1]; at 12 months, 69 patients): 41% | rate of molecular relapse after stopping TKI (CML [2]; n=100 patients with complete molecular response): 61% | median time of molecular relapse (CML [2]; n=100 patients): 2.5 months
